A short description of assay [1]: intracellular Trypanosoma cruzi inhibitors in host cells – cell-based, plate reader, cherry-pick samples, set 3, dose response (AID 651818).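 Also: compounds incubated with infected cells for about four days.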 The class given is functional.
The nature of assay [2]: luciferase reporter signal suppression in cells – H4 neuroglioma cells, luminescence, dose response (AID 1990). The format is functional, cell-based.
Assay [3] is described as follows: Luminescence Cell-Based Dose Response HTS to Identify Inhibitors of 5'UTR Stem-Loop Driven Prion Protein mRNA Translation in H4 Neuroglioblastoma Cells. [Related pubchem assays: 1827 (Project Summary), 1813 (Primary HTS)]. The class given is functional.
Assay [4] can be described thus: alpha-synuclein stem-loop luciferase translation blockers – H4 neuroglioma cells, luminescence, confirmation (AID 1988). The format is functional, cell-based.
The target of another assay is Cytochrome P450 2D6 (Homo sapiens, UniProt P10635).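 Also: CYP2D6 member of a cytochrome P450 panel assay.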
Sequence of Cytochrome P450 2D6 (P10635 whole entry): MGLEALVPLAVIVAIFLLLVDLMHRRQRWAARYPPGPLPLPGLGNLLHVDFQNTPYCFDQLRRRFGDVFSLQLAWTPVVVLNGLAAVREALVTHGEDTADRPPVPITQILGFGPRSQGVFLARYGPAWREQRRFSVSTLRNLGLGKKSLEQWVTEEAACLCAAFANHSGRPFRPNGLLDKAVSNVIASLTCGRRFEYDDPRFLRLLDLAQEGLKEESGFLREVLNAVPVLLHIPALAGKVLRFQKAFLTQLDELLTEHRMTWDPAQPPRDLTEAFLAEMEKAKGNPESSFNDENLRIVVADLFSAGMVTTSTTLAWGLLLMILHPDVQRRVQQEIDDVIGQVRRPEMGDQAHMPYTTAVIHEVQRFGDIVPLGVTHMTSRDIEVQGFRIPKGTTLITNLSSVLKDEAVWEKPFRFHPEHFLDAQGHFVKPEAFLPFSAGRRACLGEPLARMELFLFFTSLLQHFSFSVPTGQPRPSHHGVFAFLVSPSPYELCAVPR
A further assay has as its target T1, Cytochrome P450 1A2 (Homo sapiens, UniProt P05177).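 Also: PubChem cytochrome P450 panel assay, CYP1A2 panel member.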
T1 sequence (P05177 whole entry): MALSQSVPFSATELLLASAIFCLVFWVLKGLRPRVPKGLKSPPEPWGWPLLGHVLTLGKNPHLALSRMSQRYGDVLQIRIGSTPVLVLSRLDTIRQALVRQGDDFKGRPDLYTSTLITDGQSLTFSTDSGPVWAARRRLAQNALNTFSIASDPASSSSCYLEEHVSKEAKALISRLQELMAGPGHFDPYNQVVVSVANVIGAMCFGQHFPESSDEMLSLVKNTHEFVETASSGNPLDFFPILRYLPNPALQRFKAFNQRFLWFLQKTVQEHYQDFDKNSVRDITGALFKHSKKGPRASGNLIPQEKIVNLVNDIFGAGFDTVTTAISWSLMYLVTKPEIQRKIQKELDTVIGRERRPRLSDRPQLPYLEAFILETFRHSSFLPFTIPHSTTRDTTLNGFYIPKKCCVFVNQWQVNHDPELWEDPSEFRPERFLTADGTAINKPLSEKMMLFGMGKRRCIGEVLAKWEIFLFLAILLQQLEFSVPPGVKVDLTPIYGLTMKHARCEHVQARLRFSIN

Assay [5] deals with T2, Polyadenylate-binding protein 1 (Homo sapiens, UniProt P11940). The assay can be described thus: MLLE binding blockers, Cy5 peptide tracer – biochemical, fluorescence polarization, Cy5-PAM2 peptide, secondary, miRNA deadenylation inhibitor project, dose response (AID 602260). The format is functional. To be noted: read-out: IC50_Mean. Background: In fluorescence polarisation assays a small probe gives low polarisation when free and higher when bound to something large.
T2 sequence (P11940 whole entry): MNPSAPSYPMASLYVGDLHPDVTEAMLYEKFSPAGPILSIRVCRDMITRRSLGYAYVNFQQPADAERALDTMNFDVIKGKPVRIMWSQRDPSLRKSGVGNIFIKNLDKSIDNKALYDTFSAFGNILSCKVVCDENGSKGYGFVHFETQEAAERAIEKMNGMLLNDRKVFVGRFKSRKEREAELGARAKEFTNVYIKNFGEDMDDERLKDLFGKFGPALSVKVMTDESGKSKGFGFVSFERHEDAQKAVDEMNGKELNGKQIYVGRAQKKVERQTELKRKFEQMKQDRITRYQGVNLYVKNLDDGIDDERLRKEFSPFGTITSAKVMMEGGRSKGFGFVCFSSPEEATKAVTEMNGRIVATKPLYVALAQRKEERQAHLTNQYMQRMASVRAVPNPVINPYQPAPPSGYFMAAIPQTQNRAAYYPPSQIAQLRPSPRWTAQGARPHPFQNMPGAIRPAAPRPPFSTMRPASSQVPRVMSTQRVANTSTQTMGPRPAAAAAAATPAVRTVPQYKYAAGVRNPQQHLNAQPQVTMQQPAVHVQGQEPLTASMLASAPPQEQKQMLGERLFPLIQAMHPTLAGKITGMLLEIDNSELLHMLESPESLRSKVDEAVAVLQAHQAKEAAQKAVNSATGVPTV

Assay [6] addresses T2, Polyadenylate-binding protein 1. Nature of the assay: MLLE domain peptide-binding blockers, IC50 – biochemical, fluorescence polarization, FITC-PAM2 peptide, dose response (AID 602259). The class given is functional. The settings on record: read-out: IC50_Mean.
The subject of the next assay is H4. The assay can be described thus: Luminescence Cell-Based Dose Response HTS to Identify Activators of 5'UTR Stem-Loop Driven Prion Protein mRNA Translation in H4 Neuroglioblastoma Cells. [Related pubchem assays: 1829 (Project Summary), 1814 (Primary HTS)]. The class given is functional. The settings on record: Homo sapiens.
Another assay deals with Cytochrome P450 2C9 (Homo sapiens, UniProt P11712).
Sequence of Cytochrome P450 2C9 (P11712 whole entry): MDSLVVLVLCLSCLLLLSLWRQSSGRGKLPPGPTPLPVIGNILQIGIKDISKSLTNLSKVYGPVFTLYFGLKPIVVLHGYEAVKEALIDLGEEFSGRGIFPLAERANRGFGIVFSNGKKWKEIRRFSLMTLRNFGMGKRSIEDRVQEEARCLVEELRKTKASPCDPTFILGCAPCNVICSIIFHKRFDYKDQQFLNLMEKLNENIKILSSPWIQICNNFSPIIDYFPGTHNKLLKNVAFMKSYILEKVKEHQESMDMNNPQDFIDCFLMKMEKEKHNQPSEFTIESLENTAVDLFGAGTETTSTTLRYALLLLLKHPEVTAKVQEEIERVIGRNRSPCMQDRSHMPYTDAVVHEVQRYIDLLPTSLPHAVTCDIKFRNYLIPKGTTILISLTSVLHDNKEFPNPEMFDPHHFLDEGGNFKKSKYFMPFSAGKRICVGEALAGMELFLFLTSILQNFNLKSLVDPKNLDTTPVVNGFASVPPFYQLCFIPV
Assay [7] has as its target T3, Replicative DNA helicase DnaB (Mycobacterium tuberculosis, UniProt P9WMR3).
T3 sequence (P9WMR3 whole entry): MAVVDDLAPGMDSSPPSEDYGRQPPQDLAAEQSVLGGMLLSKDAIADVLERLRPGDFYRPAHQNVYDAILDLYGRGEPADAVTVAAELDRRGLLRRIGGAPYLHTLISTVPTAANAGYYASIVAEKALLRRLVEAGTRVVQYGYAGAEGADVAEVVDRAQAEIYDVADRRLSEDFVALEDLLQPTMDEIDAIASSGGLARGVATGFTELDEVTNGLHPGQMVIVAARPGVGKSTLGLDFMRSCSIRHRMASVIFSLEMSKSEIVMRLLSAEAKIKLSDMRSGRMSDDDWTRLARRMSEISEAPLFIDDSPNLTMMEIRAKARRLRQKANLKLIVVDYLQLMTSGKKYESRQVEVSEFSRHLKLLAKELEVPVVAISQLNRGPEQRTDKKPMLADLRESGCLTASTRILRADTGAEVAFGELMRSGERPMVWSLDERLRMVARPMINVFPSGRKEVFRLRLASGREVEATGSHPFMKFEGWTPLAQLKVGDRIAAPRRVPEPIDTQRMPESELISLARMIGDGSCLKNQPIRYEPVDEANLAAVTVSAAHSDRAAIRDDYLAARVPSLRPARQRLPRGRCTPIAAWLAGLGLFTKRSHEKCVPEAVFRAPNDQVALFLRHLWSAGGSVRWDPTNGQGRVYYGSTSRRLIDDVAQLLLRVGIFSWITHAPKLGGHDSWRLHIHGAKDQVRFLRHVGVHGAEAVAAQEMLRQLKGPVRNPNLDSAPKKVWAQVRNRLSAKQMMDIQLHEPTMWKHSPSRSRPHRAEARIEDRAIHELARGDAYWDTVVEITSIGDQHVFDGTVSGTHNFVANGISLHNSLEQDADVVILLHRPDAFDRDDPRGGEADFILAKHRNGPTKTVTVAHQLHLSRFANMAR
The assay can be described thus: DnaB intein splicing inhibitors, dose response, biochemical, cell-free fluorescence (AID 449749). The format is functional.

Another assay deals with T4, Protein RecA (Mycobacterium tuberculosis, UniProt P9WHJ3).
T4 sequence (P9WHJ3 whole entry): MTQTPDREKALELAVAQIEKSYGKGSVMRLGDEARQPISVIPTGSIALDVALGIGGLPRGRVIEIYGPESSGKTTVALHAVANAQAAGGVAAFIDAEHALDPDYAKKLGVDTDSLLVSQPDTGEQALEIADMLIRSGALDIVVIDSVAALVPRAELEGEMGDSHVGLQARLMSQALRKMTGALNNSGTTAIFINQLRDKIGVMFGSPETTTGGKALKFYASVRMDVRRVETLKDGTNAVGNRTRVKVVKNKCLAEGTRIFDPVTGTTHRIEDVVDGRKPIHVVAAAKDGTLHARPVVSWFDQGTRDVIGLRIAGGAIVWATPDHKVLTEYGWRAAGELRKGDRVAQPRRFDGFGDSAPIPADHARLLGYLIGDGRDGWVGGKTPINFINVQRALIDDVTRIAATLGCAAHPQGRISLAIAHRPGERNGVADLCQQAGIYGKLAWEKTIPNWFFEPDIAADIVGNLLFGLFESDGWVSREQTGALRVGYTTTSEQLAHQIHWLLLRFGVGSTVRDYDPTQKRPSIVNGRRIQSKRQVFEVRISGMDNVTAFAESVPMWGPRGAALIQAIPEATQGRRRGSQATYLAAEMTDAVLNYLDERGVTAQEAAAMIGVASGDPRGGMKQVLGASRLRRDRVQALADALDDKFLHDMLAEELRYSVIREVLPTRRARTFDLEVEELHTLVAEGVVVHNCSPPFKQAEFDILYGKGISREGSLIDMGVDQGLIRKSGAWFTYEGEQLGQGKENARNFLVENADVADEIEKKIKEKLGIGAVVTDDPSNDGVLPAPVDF
The assay can be described thus: Fluorescence Cell-Free Homogeneous Dose Retest to Identify Inhibitors of RecA-Intein Splicing Activity. [Related pubchem assays (depositor defined):AID2097, AID2223, AID489010, AID492950]. The class given is functional.

Another assay deals with Cytochrome P450 3A4 (Homo sapiens, UniProt P08684).
Sequence of Cytochrome P450 3A4 (P08684 whole entry): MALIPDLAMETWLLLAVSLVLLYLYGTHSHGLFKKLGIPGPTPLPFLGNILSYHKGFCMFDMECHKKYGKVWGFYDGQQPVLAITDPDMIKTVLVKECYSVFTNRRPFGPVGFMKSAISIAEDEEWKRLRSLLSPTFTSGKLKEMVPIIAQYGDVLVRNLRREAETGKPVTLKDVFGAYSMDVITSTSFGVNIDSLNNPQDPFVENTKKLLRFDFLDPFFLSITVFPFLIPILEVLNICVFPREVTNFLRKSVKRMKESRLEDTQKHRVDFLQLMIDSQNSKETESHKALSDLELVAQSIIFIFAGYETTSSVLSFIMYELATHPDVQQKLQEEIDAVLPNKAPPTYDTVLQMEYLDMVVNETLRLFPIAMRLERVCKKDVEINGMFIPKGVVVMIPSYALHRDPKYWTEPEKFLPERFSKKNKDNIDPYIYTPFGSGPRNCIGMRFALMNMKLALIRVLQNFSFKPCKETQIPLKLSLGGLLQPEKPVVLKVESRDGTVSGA
Another assay addresses Cytochrome P450 2C19 (Homo sapiens, UniProt P33261). Nature of the assay: Cytochrome panel assay with activity outcomes. Panel member name: p450-cyp2c19 Compounds with AC50 equal or less than 10 uM are considered active. To be noted: read-out: AC50. The format is functional.

AC50, EC50 and IC50 data for 30 compounds are collected here from ChEMBL document CHEMBL1201862, “PubChem BioAssay data set” (2004).

Calls of active or inactive are those of the source.

Sequence of Cytochrome P450 2C19 (P33261 whole entry): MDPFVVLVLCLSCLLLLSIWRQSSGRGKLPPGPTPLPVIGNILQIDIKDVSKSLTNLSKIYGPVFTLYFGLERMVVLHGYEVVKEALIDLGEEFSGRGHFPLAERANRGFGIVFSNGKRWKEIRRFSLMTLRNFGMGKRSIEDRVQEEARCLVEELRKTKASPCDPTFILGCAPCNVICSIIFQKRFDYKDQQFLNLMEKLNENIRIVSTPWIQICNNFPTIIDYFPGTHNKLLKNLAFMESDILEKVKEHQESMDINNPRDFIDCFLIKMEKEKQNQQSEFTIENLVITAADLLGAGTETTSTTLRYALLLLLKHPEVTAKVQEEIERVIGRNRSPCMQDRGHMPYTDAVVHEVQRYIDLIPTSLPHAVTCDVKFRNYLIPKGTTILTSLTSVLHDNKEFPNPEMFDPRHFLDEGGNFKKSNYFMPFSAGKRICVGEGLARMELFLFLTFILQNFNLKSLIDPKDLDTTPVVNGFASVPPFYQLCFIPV

With `C[C@@H]1CN([C@@H](C)CO)C(=O)c2cccc(NC(=O)CCCCCC(=O)Nc3ccccc3N)c2O[C@@H]1CN(C)Cc1ccc(Oc2ccccc2)cc1`, the AC50 in [1] was 2.17 µM (active).
With `O=C(Cc1ccc(-n2c(=O)[nH]c3ccccc3c2=O)cc1)N1CCN(c2cccc(Cl)c2)CC1`, the concentration giving a half-maximal response (EC50) is 23 µM (active) in assay [2], 25.3 µM (active) in assay [3] and > 120 µM (not active) in [4]. In addition, the AC50 on Cytochrome P450 2D6 was 14.1 µM (inconclusive); on Cytochrome P450 1A2, 17.8 µM (inconclusive).
As to `O=C(CSc1nnc(-c2ccco2)n1-c1ccccc1)NCc1ccco1`, the AC50 on Cytochrome P450 2D6 was 14.1 µM (inconclusive).
Take `CC(=O)Nc1ccc(SCC(=O)Nc2ccccc2Oc2ccccc2)cc1`: the IC50 in assay [5] and in assay [6] was > 66 µM (inactive) each time.
As to `Cn1c(-c2ccc(F)cc2)cnc1SCC(=O)Nc1ccccc1N1CCOCC1`, the EC50 with H4 was 0.244 µM (active).
As to `C[C@@H]1CN([C@@H](C)CO)C(=O)c2cccc(N(C)C)c2O[C@@H]1CN(C)Cc1ccc(Oc2ccccc2)cc1`, the AC50 in [1] was 6.65 µM (active).
Regarding `COc1ccc(-c2csc(NC(=O)CSc3n[nH]c(N)n3)n2)cc1`, the IC50 in [5] and in assay [6] was > 66 µM (inactive) in each case.
Consider `Cc1cc(NS(=O)(=O)c2ccc(NC(=S)NC(=O)c3ccc(Br)cc3)cc2)no1`, for which the IC50 in assay [5] and in assay [6] was > 66 µM (inactive) in each case.
With `C[C@@H]1CN([C@@H](C)CO)C(=O)c2cccc(NC(=O)Nc3ccccc3)c2O[C@H]1CN(C)Cc1ccc(C(=O)Nc2ccccc2N)cc1`, the AC50 in [1] is 0.869 µM (active).
Take `Cc1ccc(S(=O)(=O)N(C)C[C@H]2Oc3c(NC(=O)CCCCCC(=O)Nc4ccccc4N)cccc3C(=O)N([C@H](C)CO)C[C@@H]2C)cc1`: the AC50 in [1] was 1.42 µM (active).
For the compound `c1cc(NC2CC2)nc(-c2ccoc2)n1`, the AC50 at Cytochrome P450 2D6 is 39.8 µM (inconclusive).
Regarding `C[C@@H]1CN([C@@H](C)CO)C(=O)c2cccc(NC(=O)CCCCCC(=O)Nc3ccccc3N)c2O[C@H]1CN(C)Cc1ccc(Cl)c(Cl)c1`, the AC50 in [1] is 3.06 µM (active).
Consider `Cc1ccc(NC(=O)CN2C(=O)S/C(=C/c3ccncc3)C2=O)cc1`, for which the IC50 in [5] and in assay [6] was > 66 µM (inactive) throughout.
Consider `C[C@H](CO)N1C[C@H](C)[C@@H](CN(C)S(=O)(=O)c2ccccc2)Oc2c(NC(=O)Nc3ccccc3)cccc2C1=O`, for which, in assay [1], the AC50 was 20 µM (inactive).
Consider `CC(O)(CS(=O)(=O)Cc1ccc(Cl)cc1)C(=O)Nc1cccc(C(F)(F)F)c1` (stereo not drawn), for which the AC50 at Cytochrome P450 2D6 is 15.8 µM (inconclusive); on Cytochrome P450 2C9, 8.91 µM (inconclusive).
Take `C[C@@H]1CN([C@@H](C)CO)C(=O)Cc2cc(NC(=O)Cc3ccccc3)ccc2O[C@@H]1CN(C)Cc1ccc(C(=O)Nc2ccccc2N)cc1`: the AC50 in assay [1] is 3.09 µM (active).
As to `Cc1ccc(S(=O)(=O)Nc2ccc3c(c2)CC(=O)N([C@H](C)CO)C[C@@H](C)[C@@H](CN(C)Cc2ccc(Oc4ccccc4)cc2)O3)cc1`, the AC50 in assay [1] was 2.03 µM (active).
Turning to `COc1ccc(-n2ccnc(SCC(=O)NC3CCCC3)c2=O)cc1OC`, the IC50 in assay [5] and in assay [6] was > 66 µM (inactive) each time.
As for `C[C@@H]1CN([C@@H](C)CO)C(=O)c2cccc(NC(=O)Nc3ccccc3)c2O[C@@H]1CN(C)S(=O)(=O)c1cccs1`, the AC50 in assay [1] was 14.8 µM (active).
As for `C[C@@H]1CN([C@@H](C)CO)C(=O)c2cccc(NS(=O)(=O)c3ccc(Cl)cc3)c2O[C@@H]1CN(C)C(=O)Nc1ccc(C(F)(F)F)cc1`, in assay [1], the AC50 was 3.58 µM (active).
`C[C@H]1CN([C@@H](C)CO)C(=O)c2cc(NC(=O)Nc3cccc4ccccc34)ccc2O[C@H]1CN(C)Cc1ccc(-c2ccccc2)cc1`: in [1], the AC50 was 5.22 µM (active).
Take `Cc1ccc(S(=O)(=O)Nc2ccc3c(c2)CC(=O)N([C@H](C)CO)C[C@@H](C)[C@@H](CN(C)Cc2ccc(C(=O)Nc4ccccc4N)cc2)O3)cc1`: the AC50 in assay [1] is 3.25 µM (active).
Turning to `CCN(CC)CCC(=O)Nc1ccc2c(c1)N(C(=O)CN(CC)CC)c1ccccc1CC2`, at Cytochrome P450 2D6, the AC50 is 15.8 µM (inconclusive).
As to `C/C(CCN1CCCCc2nc(C)c(C)cc21)=N\O[C@@H](C)c1cc(-c2c(C)cc(C)cc2C)no1`, the AC50 at Cytochrome P450 2D6 is 3.16 µM (inconclusive).
Take `CCCc1n[nH]c2c1C(c1ccncc1)C(C#N)=C(N)O2` (stereo not drawn): the AC50 in assay [7] is 45.8 µM (active); at Cytochrome P450 2D6 it was 25.1 µM (inconclusive); at Cytochrome P450 1A2, 25.1 µM (inconclusive); on Cytochrome P450 3A4, 39.8 µM (inconclusive). Besides, the half-maximal effective concentration (EC50) on Protein RecA is 17.6 µM (active).
Consider `O=c1c(-c2cc(F)cc(F)c2)nc2cnc(N3CCNCC3)nc2n1CCc1ccccc1`, for which the AC50 on Cytochrome P450 2D6 and on Cytochrome P450 1A2 was 20 µM (inconclusive) each time.
For the compound `CCC/C=C(\CCC)C(NP(=O)(c1ccccc1)c1ccccc1)c1ccccc1` (stereo not drawn), the AC50 on Cytochrome P450 2C19 is 20 µM (inconclusive); on Cytochrome P450 2D6 it was 39.8 µM (inconclusive); on Cytochrome P450 1A2 it was 15.8 µM (inconclusive); at Cytochrome P450 2C9 it was 25.1 µM (inconclusive).
Regarding `C[C@H]1CN([C@@H](C)CO)C(=O)Cc2cc(N(C)C)ccc2O[C@@H]1CN(C)Cc1ccc(-c2ccccc2)cc1`, in assay [1], the AC50 is 2.21 µM (active).
The same measure, in the same setting: with `C[C@@H]1CN([C@H](C)CO)C(=O)Cc2cc(NS(=O)(=O)c3ccccc3)ccc2O[C@@H]1CN(C)Cc1ccc(-c2ccccc2)cc1` the figure was 3.26 µM (active).
With `O=C(Nc1ccccc1)OCc1cc(-c2ccc(Cl)cc2)on1`, the AC50 at Cytochrome P450 2D6 was 3.16 µM (inconclusive).

In general, AC50 refers to the concentration giving half of the maximal activity seen. For orientation: EC50 means the midpoint of the concentration-response curve.
